Columns and labels:
[1] = Plasma levels of AIT-082 in mice (HPLC); type: in vivo; conditions: 30 mg/kg i.p., C57BL/6 mice, estimated
Method: Adult C57BL/6 mice were administered 30 mg/kg of AIT-082 in saline i.p. The animals were sacrificed by decapitation at […] after administration of AIT-082. Blood was collected in heparinized tubes, mixed and centrifuged at 2000 rpm for 15 minutes. The plasma supernatant was removed and stored at −70° C. until analysis. A high pressure liquid chromatography system was developed for the analytical measurement of AIT-082 in plasma and brain tissue. The assay developed was selective for AIT-082 in the presence of a number of closely related purine molecules. The sensitivity of the method was 0.1 microgram of AIT-082 per ml of plasma and 0.1 microgram of AIT-082 per milligram of brain tissue (wet weight).
The results of these determinations graphically represented in FIG. 1 where plasma levels of AIT-082 are provided at 5, 10, 15, 20, 30, 60, 90, and 120 minutes after administration of 30 mg/kg i.p. to C57BL/6 mice. From the data, it was estimated that the blood level of AIT-082 reached its peak at approximately 15 minutes.

acetylcholine receptors = type: binding, mouse
mice = assay: Hot plate nocioception; type: in vivo; conditions: hot plate 55° C.
Method: Mice were placed on an electric hot plate (Ominitech) at 55° C. and the latency time until the subject licked his hind paw was measured. If there was no response by 45 seconds, the trial was terminated. By this test there was no effect of AIT-082 on nocioception.

NT-3 mRNA = assay: Northern blot of neurotrophin mRNA from astrocytes: NT-3; type: cell-based, NIH Swiss mice; set-up: key: The conditions which produced a detectable amount of each of the neurotrophin mRNAs are indicated by a “+”; a “++” indicating that at least twice the detectable amount was present; Those blots which were negative are indicated by a “−”; conditions: 24 hours
Method: Induction of neurotrophin mRNA was determined by northern blot analysis of astrocytes cultured with AIT-082, NGF, or both. The cells were harvested and RNA extracted at 24 hours after treatment.
More particularly, astrocytes from the cerebral cortex of NIH Swiss mice (Harlan) were isolated. Briefly, newborn pups (0-24 hours) were decapitated. Their brains were removed under aseptic conditions and were placed in modified Dulbecco's medium (DMEM) containing 20% heat-inactivated horse serum (Hyclone) (“complete medium”). The neopallium was then dissected from each cerebral hemisphere and minced into 1 mm cubes.
The astrocytes were then isolated by mechanical dissociation. The cubes were vortexed at maximum speed for one minute. The cell suspension was then passed first through 75 mm Nitex then through 10 mm Nitex. The resulting cell suspension was diluted in complete medium to a final concentration of one brain per 10 ml of complete medium. Ten milliliters of the diluted cell suspension was added to each 100 mm Falcon tissue culture plate (Fisher). After 3 days the medium was replaced with 10 ml fresh complete medium and subsequently was replaced twice weekly with DMEM containing 10% heat inactivated horse serum (“growth medium”). After two weeks in culture the astrocytes formed a confluent monolayer.
For RNA extraction, astrocytes were trypsinized. The astrocytes were then replated onto 100 mm PORN coated plates at a cell density of 10^6 cells per plate (10 ml growth medium). […]
The blots were probed with ^32P-labeled cDNA (NGF, NT-3 and BDNF probes) or oligonucleotide probe (FGF-2) by hybridization in Piperazine-N,N′-bis-(2-ethanesulfonic acid) (PIPES) buffer (50 mM PIPES, pH 6.8; 50 mM NaH2PO4; 0.1 M NaCl; 5% SDS and 1 mM EDTA) overnight at 50° C. […] Various concentrations ([…] of total RNA), as determined by spectrophotometry, of each sample were blotted and probed so that quantification could be done after insuring a linear film response. Quantification was performed using MCID Image Analysis (St. Catherine's, Ontario, Canada). […]

S100β protein = assay: Western blot of astrocyte cytosolic proteins: S100β; type: cell-based, rat; conditions: 100 μM AIT-082
GDNF = assay: Summary of effects on growth factor mRNA and protein (Table R): GDNF; set-up: key: ± = mRNA; + = protein; nt = not tested
Description: The constellation of effects of AIT-082 on production of mRNA encoding growth factors and on production of growth factor proteins is shown in Table R. The results summarized in […] show both transcriptional and translational effects on growth factors that are in the categories of neurotrophins, pleiotrophins, members of the S100 family of EF hand calcium binding proteins, and members of the TGFβ superfamily. As indicated, effects have been shown at both the mRNA (transcriptional) and protein (translational) levels.

[2] = 79 different test systems

## O=C(CCn1cnc2c(=O)[nH]cnc21)Nc1ccc(C(=O)O)cc1 [AIT-082, N-4-carboxyphenyl-3-(6-oxohydropurin-9-yl)propanamide]
[1]
  time at which blood level of AIT-082 reached its peak: approximately 15 minutes
Acetylcholine receptors
  interference with the binding of QNB: no effect
mice
  effect on nocioception (hot plate latency): no effect
NT-3 mRNA; AIT-082 100 mM
  NT-3 mRNA: ++
NT-3 mRNA; AIT-082 + NGF (40 ng/ml)
  NT-3 mRNA: +
S100β protein
  ex novo synthesis of S100β protein: did not stimulate ex novo synthesis of S100β protein
GDNF; Aged Brain
  GDNF, effect on mRNA/protein production: +
GDNF; Lesioned Brain
  GDNF, effect on mRNA/protein production: +
GDNF; Normal Brain
  GDNF, effect on mRNA/protein production: +
GDNF; Normal Spinal Cord
  GDNF, effect on mRNA/protein production: +
[2]
  toxicity in standard profile: absence of any toxicity
